Measurements published in patent US10308607B2, “Fucosidase inhibitors” (HORIZON ORPHAN LLC, priority 2015, dated 2019).

Assays:
HepG2 cells [1] = assay: Metabolic labeling with tagged-fucose, flow cytometry; type: cell-based, human; settings: for Mean Green Fluorescence (GRN-HLog): HepG2, 24 hours compound then 48 hours fucose alkyne, Alexa Fluor 488 Azide; for Fold over vehicle: mean green fluorescence, HepG2
Description: Perturbations in glycoprotein metabolism were assayed by growing HepG2 cells without fucosidase inhibitors, or with compound II, III, or IV (see Example 2) for 24 hours, and then adding (3S,4R,5R,6S)-6-ethynyltetrahydro-2H-pyran-2,3,4,5-tetrayl tetra acetate, a per-acetylated analog of fucose containing an alkyne moiety in place of the 5′-methyl group (Click-iT™ Fucose Alkyne, Molecular Probes, Eugene, Oreg.) for an additional 48 hours. Cells were fixed, permeabilized, washed, and stained with Alexa Fluor 488 Azide to orthogonally label glycoproteins incorporating the fucose analog. Cells were then analyzed for fluorescence using a Guava 6HT-2L flow cytometer (ThermoFisher).

rhFUCA1 = rhFUCA1 (Homo sapiens (Human), UniProt P04066); assay: In vitro fucosidase inhibition (4MU-FUC fluorescence); type: biochemical; settings: 1 ng/mL rhFUCA1, 640 nM 4MU-FUC, pH 4.5, 37° C., 30 minutes
Description: Fucosidase inhibition was assessed by preparing a reaction mixture of 50 mM phosphate-citrate pH 4.5, 5 mM MgCl2, 640 nM 4-methylumbelliferyl-alpha-L-fucopyranoside (4MU-FUC), 1 ng/mL rhFUCA1 (R&D Systems), and compound II, III, or IV:
Reactions (100 μL) were incubated at 37° C. for 30 minutes and then quenched with the same volume of 600 mM citrate-carbonate buffer, pH 9. Fluorescence was measured by excitation at 360 nm and emission at 450 nm.

fucosidase = settings: Li et al. 2008; cited from earlier work
HepG2 cells [2] = assay: Cytotoxicity in HepG2 cells (XTT assay); type: cell-based, human; settings: HepG2, 24 or 48 hours, compared to compound II
Description: To assess the compounds' cytotoxicity in cells, HepG2 cells were seeded in triplicate in 96-well plates at 1.5e4 cells/well in Minimum Essential Media, 10% FBS and 2 mM L-glutamine. Plated cells were allowed to recover for 48 hours. Medium was then replaced with the same media containing dilutions of compound II or IV (see Example 2), incubated for 24 or 48 hours, and subjected to XTT assay to measure viability (ATCC).

rhFUCA1, sequence (P04066 32-466): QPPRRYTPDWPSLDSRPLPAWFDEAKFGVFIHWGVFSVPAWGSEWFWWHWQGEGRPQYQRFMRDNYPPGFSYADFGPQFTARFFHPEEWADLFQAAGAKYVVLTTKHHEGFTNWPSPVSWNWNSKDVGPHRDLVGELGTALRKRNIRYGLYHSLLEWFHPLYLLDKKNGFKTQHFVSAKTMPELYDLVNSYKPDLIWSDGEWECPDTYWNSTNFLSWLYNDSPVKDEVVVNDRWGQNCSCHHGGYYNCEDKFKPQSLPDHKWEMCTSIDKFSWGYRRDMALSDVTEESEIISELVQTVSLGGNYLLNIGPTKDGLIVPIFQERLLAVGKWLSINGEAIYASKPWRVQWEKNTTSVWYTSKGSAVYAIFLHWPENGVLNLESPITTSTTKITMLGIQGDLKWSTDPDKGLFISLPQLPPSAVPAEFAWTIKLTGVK

O=C(NC[C@@H]1N[C@@H](CF)[C@@H](O)[C@@H](O)[C@@H]1O)c1cccc2c1C(=O)c1ccccc1-2 [Compound III]
Mean Green Fluorescence (GRN-HLog) (HepG2 cells [1]): 1220
Fold over vehicle (HepG2 cells [1]): 0.43
IC50 (rhFUCA1): 59 nM

CCCCN1C[C@H](O)[C@@H](O)[C@H](O)[C@H](C(=O)O)C1 [Faz, (3R,4R,5S,6S)-1-butyl-4,5,6-trihydroxyazepane-3-carboxylic acid]
potency of fucosidase inhibition (fucosidase): low nanomolar range

C[C@@H]1N/C(=C\C(=O)Nc2cccc3c2C(=O)c2ccccc2-3)[C@@H](O)[C@H](O)[C@@H]1O [Compound IV]
cytotoxicity (XTT viability) (HepG2 cells [2]): reduced cytotoxicity at higher inhibitor concentrations compared to compound II
Mean Green Fluorescence (GRN-HLog) (HepG2 cells [1]): 12900
Fold over vehicle (HepG2 cells [1]): 4.56
IC50 (rhFUCA1): 1500 nM
